Results reported in patent publication US7892557B2, “Peptide mimotopes of mycobacterial mannosylated lipoglycans and uses thereof” (priority 2004, dated 2011).
Ends that are not written are not given here.

Assays:
[1] = system: IgG antibodies in sera of Mtb-infected mice; assay type: binding, BALB/c mice
RAW 264.7 cell line [2] = assay: Confocal microscopy of FITC-labeled B11 peptide binding to RAW 264.7 cell line; assay type: cell-based, murine; conditions: FIG. 5A
Experimental: (§1) The cell line RAW 264.7 obtained from the American Type Culture Collection was grown in Dulbecco's modified Eagle's medium (DMEM) supplemented with 10% FCS, 1% penicillin, 1% L-glutamine, 1% nonessential amino acids, and 1% pyruvate (Biological Industries, Beit Haemek, Israel) to an 80% confluent culture at 37° C. in an atmosphere enriched with 5% CO2.
B11 peptide (50 μg) was conjugated to FITC (Biotium, Hayward, Calif.) as described by Sethi et al., [Sethi, K. K., et al. Cell Motil Cytoskeleton 52:231-241 (2002)]. For confocal microscopy, RAW 264.7 cells were grown in 8-well glass slides, Chamber Slide™ (Nunc), as described above. Cells were washed three times in cold PBS and incubated with the FITC-labeled mimotope for 5 min at 4° C. in serial dilutions of 1:2-1:100 in cold PBS. Slides were imaged immediately with a Zeiss 410 confocal laser scanning microscope.

RAW 264.7 cell line [3] = assay: FACS analysis of FITC-labeled mimotope binding to RAW 264.7 cell line; assay type: cell-based, murine
Experimental: as §1
RAW 264.7 cells were grown in a 250-ml flask, washed 3 times in cold PBS, and harvested. Cells were then incubated for 15 min at 37° C., with the FITC-labeled peptide diluted 1:50, then washed 3 times in cold PBS. The fluorescence levels of 10,000 cell counts were determined by FACS (Becton Dickinson, Franklin Lakes, N.J.) and analyzed by CELLQuest™ software. Assay of competitive binding between mannose and the FITC-labeled B11 peptide was performed according to Nguyen and Hildreth, [Nguyen, D. G., and Hildreth, J. E. Eur J Immunol 33:483-493 (2003)].

CS40 mAb = assay: Direct peptide ELISA with CS40 mAb; assay type: binding; conditions: synthetic peptide coated plates
[4] = system: serum antibodies of TB patients; assay: Direct ELISA of human sera on B11 peptide or ManLAM coated plates; conditions: FIG. 4
Experimental: Direct ELISA assays were performed by coating 96-well ELISA plates (O/N at 4° C.) with 5-20 μg peptide per well in PBS ManLAM 5 μg/well (50 μl/well). The plates were washed twice in phosphate buffered saline (PBS), blocked with PBS/1% BSA and then washed twice (PBS). Sera diluted in PBS/0.5% BSA (1:50 or 1:200) or CS40 mAb (1:2000) (50 μl per well) was added and incubated for 1 h at 37° C. After washing, alkaline phosphatase-labeled goat anti-mouse immunoglobulin (Sigma, St. Louis, Mo.) was added. Following 90-min incubation at 37° C., p-nitrophenyl phosphate (KPL, Gaithersburg, Md.) was added to the plates, and optical density was measured at 405 nm using ELISA reader (ELX-800UV, Bio-Tec instruments, Winooski, Vt.). In all ELISA procedures, samples were tested in triplicate.
The presence of serum antibodies in sera of TB patients that bind the B11 peptide was tested. […] Using ELISA, sera from Bacillus Calmette Guerin (BCG)-vaccinated individuals (n=10) was tested, as it is sometimes difficult to distinguish BCG-vaccinated individuals from TB patients [Ciesielski, S. D., J Fam Pract 40:76-80 (1995)].

CS40 anti-ManLAM mAb = assay: ELISA competition vs. ManLAM for CS40 mAb; assay type: binding; conditions: 50 μg/ml of peptide; FIG. 1B
Experimental: Binding efficacy of the amino acid molecule to ManLAM binding antibodies may be evaluated by determining the magnitude of OD decrease when serial dilutions of phage clones/amino acid molecule are incubated with CS40 mAb. The phage clones/amino acid molecule with a higher affinity to mAb will show maximum inhibition of the binding of the mAb to ManLAM with the lowest number of phage particles or lowest amount of amino acid molecule, respectively.
ELISA competition assay was performed according to Kaur et al., [Kaur, D., et al. Microbiology 148:3049-3057 (2002)]. Briefly, plates were coated with 0.5 μg/well ManLAM. Plates were blocked as described above. The CS40 mAb (diluted 1:2000) was mixed with various concentrations of either phage particles in TBS/1% BSA ([…]) or peptides in PBS/1% BSA (0-200 μg/well). […] After washing (PBS), the ELISA procedure was performed as described above. Samples were all tested in triplicate
Efficiency of binding was evaluated by the magnitude of OD decrease when serial dilutions of phage clones were incubated with the CS40 mAb.

Substance: CISLTEWSMWYRH (random phage display library) [SEQ ID NO: 10, B11 peptide with additional cysteine residue at the amino terminus]
- binding properties to ManLAM-binding antibodies compared with original peptide ([1]; ELISA with extra cysteine at the amino terminus, data not shown): maintained binding properties

Substance: FITC-conjugated B11 peptide: B11 peptide conjugated to FITC (ISLTEWSMWYRH; also: FITC-conjugated, position not given here)
- binding to macrophage cell line RAW 264.7 by confocal microscopy (RAW 264.7 cell line [2]): bound
- effect of D-mannose on binding to macrophages (FACS) (RAW 264.7 cell line [3]; 0.125 M D-mannose added, FIG. 5C): inhibited
- binding to macrophage cell line RAW 264.7 by FACS analysis (RAW 264.7 cell line [3]; FITC-labeled peptide diluted 1:50, FIG. 5B): bound

Substance: ISLTEWSMWYRH (random phage display library) [B11 peptide, dodecamer peptide mimotope of ManLAM]
- binding to CS40 mAb by direct ELISA (CS40 mAb): bound
- anti-peptide antibody titers in BCG-vaccinated individuals vs. TB patients ([4]; BCG-vaccinated (n=10), p<0.001): significantly lower
- antigen-binding antibody titers in sera of TB patients vs. healthy individuals ([4]; TB patients (n=16) vs. healthy individuals (n=36)): Significantly higher titers
- decrease in OD in competitive ELISA vs. ManLAM (CS40 anti-ManLAM mAb): 100%
- IgG Abs in sera of Mtb-infected mice binding the antigen, vs. naive mice [1]: significantly higher
